Laboratory results from patent US20220153766A1, “CONDENSED TRICYCLIC COMPOUND USED AS KINASE INHIBITOR” (Hangzhou Innogate Pharma Co., Ltd., priority 2019, published 2022).

What was measured:
ALK = ALK (Homo sapiens, UniProt Q9UM73); test: ALK kinase activity inhibition, Caliper mobility shift assay, method 1; type: biochemical
Experimental: 2. ALK Kinase Activity Inhibition Experiment: Method 1: In vitro enzymatic activity of ALK was measured using Caliper mobility shift assay. […] Add 10 μL of 2.5-fold enzyme solution and incubate at room temperature for 10 minutes, then add 10 μL of 2.5-fold substrates (Peptide FAM-P22 and ATP) solution. […] Read conversion rate data on Caliper EZ Reader II (Caliper Life Sciences). Convert the conversion rate into inhibition rate (% inhibition=(max−conversion rate)/(max−min)*100). Max refers to the conversion rate of the DMSO control, and min refers to the conversion rate without enzyme activity. With the compound concentration and inhibition rate on the abscissa and ordinate, draw the curve, use XLFit excel add-in version 5.4.0.8 software to fit the curve and calculate the IC50.

EGFR (C797S) = EGFR (C797S) (Homo sapiens, UniProt P00533, C797S); test: EGFR (C797S) kinase activity inhibition, Lantha screen Assay; type: biochemical; conditions: kinase 10 nM, ATP 0.1 μM
Experimental: 1. EGFR (C797S) Kinase Activity Inhibition Experiment: The Lantha screen Assay method was used to test the inhibitory activity of the compounds at a kinase EGFR (C797S) concentration of 10 nM and an ATP concentration of 0.1 μM. The control samples were Staurosporine. Experimental Steps: […] 2) Control sample Staurosporine and test samples preparation: Staurosporine and the compounds of the embodiment of the present invention are formulated into a gradient concentration solution in 100% DMSO, and diluted to 10% DMSO with the above-mentioned buffer, and added to a 384-well plate. For example, if the initial concentration of the compound is 10 μM, 100% DMSO is used to prepare a 1000 μM solution, and 10 concentration gradients are diluted, and 100 nL solution is transferred to a 384-well plate with Echo*LIQUID HANDLE RS (LABCYTE, USA). […] Transfer 5 μL to the 384-well plate and incubate with the compound for 10-15 minutes. […] Transfer 5 μL to the 384-well plate to initiate the reaction, and incubate at room temperature for 30 minutes. [table] 5) Use TR-Fret dilution buffer to prepare 2-fold detection solution. The final concentration of Antibody is 2 nM and the final concentration of EDTA is 10 mM. Transfer 10 μL of detection solution to the reaction wells of the 384-well plate, shake and mix, and incubate at room temperature for 60 min. 6) Read the ratio of excitation at 340 nm and emission at 520 nm to 495 nm on Envision, and calculate the inhibition rate. 7) Fit IC50 with XL-fit software.

[1] = molecular target: Ba/F3_EGFR del19/T790M/C797S cells (Homo sapiens, UniProt P00533, T790M/C797S, cells depend on it, form not given); test: Ba/F3_EGFR (del19-T790M-C797S) cell proliferation inhibition, CTG, method 1; type: cell-based; conditions: 700 cells/well, 72 h, read-out: Ba/F3_EGFR (del19-T790M-C797S) cell proliferation inhibition (IC50 value) Method 1
Experimental: The cells were cultured in a 37° C., 5% CO2 incubator.
Cell plating and compound treatment: 1) Cells are routinely cultured until the cell saturation is 80%-90%, and when the number reaches the requirement, the cells are collected. 2) Resuspend in the corresponding fresh medium, take a small amount of cells to count, and prepare a cell suspension with a suitable density. 3) Inoculate the cell suspension into a 384-well plate at 700 cells/well, 30 μL per well. 4) Use Echo to add the compound to the corresponding cell well. The maximum starting concentration of the compound is 1-10 μM, 3 folds dilution, 8 concentrations.
CTG method detection: 1) Add 30 μL of CTG reagent (CelltiterGlo kit) to each well, and let it stand for 30 minutes at 37° C. and 5% CO2 in the dark. 2) Use Envision instrument to read the chemiluminescence signal value.
Data analysis: IC50 results are analyzed by GraphPad Prism 6 software. […] X: log value of compound concentration; Y: inhibition rate (% inhibition); inhibition rate (% inhibition)=(blank control well reading−compound well reading)/(blank control well reading−positive control reading)×100.

[2] = Pharmacokinetic study in rats after intragastrical administration; type: in vivo; conditions: male, rat, plasma, po, SD rats, 4 mg/kg
Experimental: Example 55: Pharmacokinetic Study in Rats
Instruments: XEVO TQ-S LC/MS instrument produced by Waters. All measurement data is collected and processed by Masslynx V4.1 software, and the data is calculated and processed by Microsoft Excel. Using WinNonLin 8.0 software, the statistical moment method was used to calculate the pharmacokinetic parameters. Mainly include kinetic parameters Tmax, T1/2, Cmax, AUClast etc. […] Injection volume: 5 μL.
Animals: 3 male SD rats with a weight range of 200-220 g. After purchase, they will be kept in the laboratory of the Experimental Animal Center for 2 days and then used. They will be fasted for 12 hours predose and 4 hours after dosing. Drinking water is free during the test. After the rats were gavage, blood samples were taken according to the established time point.
Solvent: 0.5% Methylcellulose (aqueous solution containing 0.4% Tween 80 and 1% ethanol). Preparation of the solution for intragastrical administration: accurately weigh the compound, add it to the solvent, and ultrasonically at room temperature for 5 minutes to completely dissolve the drug, and prepare a 0.3 mg/ml medicinal solution.
Pharmaceutical samples: representative compounds of the structure shown in the patented formula (I) of the present invention, generally, multiple samples with similar structures (with a molecular weight difference of more than 2 units) are taken, accurately weighed, and administered together (cassette PK). In this way, multiple compounds can be screened at the same time and their oral absorption rates can be compared. A single administration was also used to study the pharmacokinetics of the drug sample in rats.
After intragastrical administration, blood was taken from the orbit at 0.25, 0.5, 1, 2, 4, 9, 12 and 24 hours, and placed in a plastic centrifuge tube pretreated with sodium heparin. After centrifugation, the supernatant plasma was used for LC-MS/MS analysis.
Accurately weigh the compounds to prepare different concentrations, perform quantitative analysis on mass spectrometry to establish a standard curve, and then test the concentration of the above-mentioned compound in the plasma to obtain the compound concentration at different time points. All measurement data are collected and processed by relevant software, and the statistical moment method is used to calculate the pharmacokinetic parameters (mainly including kinetic parameters Tmax, T1/2, Cmax, AUClast etc). The results are as follows:
Table 7: Pharmacokinetic Parameters of the Compounds after Intragastrical Administration in SD Rats

MAP4K1 (HPK1) = MAP4K1 (HPK1) (Homo sapiens, UniProt Q92918); test: MAP4K1 (HPK1) kinase activity inhibition, Caliper mobility shift assay; type: biochemical; conditions: kinase 1.25 nM, ATP 10.1 μM
Experimental: 4. MAP4K1 (HPK1) Kinase Activity Inhibition Experiment: Caliper mobility shift assay was used to detect the inhibitory effect of the compound on MAP4K1 (HPK1) kinase activity. The test concentration of the compound starts at 500 nM, and is diluted 5 folds into 5 concentration points. Use a dispenser Echo 550 to transfer 250 nL 100-fold final concentration of the compound to the target plate 3573, add 10 μL of MAP4K1 (HPK1) kinase solution with a final concentration of 1.25 nM, and incubate for 10 minutes at room temperature (the negative control well contains 10 μL kinase buffer and 250 nL 100% DMSO; the positive control well contains 10 μL kinase solution and 250 nL 100% DMSO). On the kinase MAP4K1 (HPK1), add 15 μL of ATP with a final concentration of 10.1 μM and 3 μM substrate peptide No. 25 mixed solution to react for 120 minutes. Add 30 μL of stop solution containing EDTA to stop the kinase reaction. Use Caliper EZ Reader to read the conversion rate. Inhibition rate %=(Average positive control conversion rate %−Sample conversion rate %/(Average positive control conversion rate %−Average negative control conversion rate %). Among them: negative control wells represent the conversion rate readings without enzyme activity; positive control wells represent the conversion rate readings of wells without compound inhibition. Take the log value of the concentration as the X-axis, and the percentage inhibition rate on the Y-axis. Log (inhibitor) vs. response—Variable slope of analysis software GraphPad Prism 5 was used to fit the curve to obtain the IC50 value of each compound on the enzyme activity. Calculation formula: Y=Bottom+(Top−Bottom)/(1+10 ^((Log IC50−X)*HillSlope)).

Chain of Ba/F3_EGFR del19/T790M/C797S cells (P00533 with tags, fused parts or gaps DEL746-750/T790M/C797S, form open): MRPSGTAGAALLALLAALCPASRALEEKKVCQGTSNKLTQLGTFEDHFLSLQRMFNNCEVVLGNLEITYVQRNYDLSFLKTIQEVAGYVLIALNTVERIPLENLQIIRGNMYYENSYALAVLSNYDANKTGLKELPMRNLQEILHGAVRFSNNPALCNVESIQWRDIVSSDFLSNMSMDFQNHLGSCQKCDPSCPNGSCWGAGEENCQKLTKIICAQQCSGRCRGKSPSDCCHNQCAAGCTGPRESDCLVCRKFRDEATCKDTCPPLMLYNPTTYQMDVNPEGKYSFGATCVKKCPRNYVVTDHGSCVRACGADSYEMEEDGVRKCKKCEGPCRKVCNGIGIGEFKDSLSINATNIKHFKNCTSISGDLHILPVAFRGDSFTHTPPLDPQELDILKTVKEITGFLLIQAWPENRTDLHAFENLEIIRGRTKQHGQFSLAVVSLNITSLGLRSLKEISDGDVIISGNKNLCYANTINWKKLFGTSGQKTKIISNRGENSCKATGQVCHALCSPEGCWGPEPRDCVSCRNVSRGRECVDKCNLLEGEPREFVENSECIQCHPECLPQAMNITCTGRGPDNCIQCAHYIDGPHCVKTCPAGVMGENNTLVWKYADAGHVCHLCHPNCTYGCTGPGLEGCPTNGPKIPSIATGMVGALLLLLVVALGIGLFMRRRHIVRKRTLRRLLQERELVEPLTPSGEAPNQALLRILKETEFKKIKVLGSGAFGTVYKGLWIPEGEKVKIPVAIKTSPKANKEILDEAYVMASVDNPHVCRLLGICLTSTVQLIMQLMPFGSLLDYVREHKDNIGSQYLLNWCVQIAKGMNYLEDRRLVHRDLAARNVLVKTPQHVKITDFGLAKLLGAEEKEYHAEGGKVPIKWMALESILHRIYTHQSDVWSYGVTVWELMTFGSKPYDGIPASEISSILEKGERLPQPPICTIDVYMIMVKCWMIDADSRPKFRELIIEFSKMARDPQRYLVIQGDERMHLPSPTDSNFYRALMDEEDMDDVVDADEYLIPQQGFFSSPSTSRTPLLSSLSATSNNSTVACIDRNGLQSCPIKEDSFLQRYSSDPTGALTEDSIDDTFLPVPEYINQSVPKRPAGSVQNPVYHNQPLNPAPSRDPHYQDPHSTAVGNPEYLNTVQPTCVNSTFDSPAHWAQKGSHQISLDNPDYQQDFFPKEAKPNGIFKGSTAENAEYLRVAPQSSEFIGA
Chain of EGFR (C797S) (P00533 25-1210 C797S): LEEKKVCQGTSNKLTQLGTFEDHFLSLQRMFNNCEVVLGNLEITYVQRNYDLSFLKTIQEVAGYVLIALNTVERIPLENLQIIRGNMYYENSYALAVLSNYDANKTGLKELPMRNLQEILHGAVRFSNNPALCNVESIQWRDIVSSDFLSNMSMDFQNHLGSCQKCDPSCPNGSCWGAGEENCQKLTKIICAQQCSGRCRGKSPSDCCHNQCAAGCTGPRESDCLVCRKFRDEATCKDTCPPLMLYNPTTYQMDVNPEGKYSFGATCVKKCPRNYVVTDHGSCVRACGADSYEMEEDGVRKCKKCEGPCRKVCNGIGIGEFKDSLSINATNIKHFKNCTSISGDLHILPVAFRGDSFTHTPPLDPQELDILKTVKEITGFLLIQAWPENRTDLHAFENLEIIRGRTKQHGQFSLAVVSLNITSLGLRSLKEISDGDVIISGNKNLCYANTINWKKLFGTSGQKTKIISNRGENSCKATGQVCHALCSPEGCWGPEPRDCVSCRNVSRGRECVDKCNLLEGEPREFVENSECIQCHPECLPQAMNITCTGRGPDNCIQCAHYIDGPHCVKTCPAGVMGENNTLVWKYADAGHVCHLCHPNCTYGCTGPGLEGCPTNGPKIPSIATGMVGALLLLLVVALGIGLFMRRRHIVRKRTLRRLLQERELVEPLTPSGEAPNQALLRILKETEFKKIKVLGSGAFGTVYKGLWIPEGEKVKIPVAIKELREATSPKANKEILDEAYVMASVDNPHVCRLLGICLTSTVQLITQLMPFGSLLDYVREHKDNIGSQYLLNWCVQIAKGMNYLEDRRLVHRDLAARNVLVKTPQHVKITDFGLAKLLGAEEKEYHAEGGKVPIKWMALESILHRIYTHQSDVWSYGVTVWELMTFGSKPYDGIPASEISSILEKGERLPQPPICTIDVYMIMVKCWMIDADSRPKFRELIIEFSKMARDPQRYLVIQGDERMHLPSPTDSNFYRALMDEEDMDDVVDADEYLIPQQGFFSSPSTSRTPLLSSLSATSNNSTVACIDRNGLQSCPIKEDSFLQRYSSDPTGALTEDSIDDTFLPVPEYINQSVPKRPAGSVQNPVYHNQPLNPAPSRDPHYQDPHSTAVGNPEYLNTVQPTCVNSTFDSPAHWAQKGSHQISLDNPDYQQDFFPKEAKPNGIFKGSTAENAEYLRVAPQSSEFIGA
Chain of ALK (Q9UM73 19-1620): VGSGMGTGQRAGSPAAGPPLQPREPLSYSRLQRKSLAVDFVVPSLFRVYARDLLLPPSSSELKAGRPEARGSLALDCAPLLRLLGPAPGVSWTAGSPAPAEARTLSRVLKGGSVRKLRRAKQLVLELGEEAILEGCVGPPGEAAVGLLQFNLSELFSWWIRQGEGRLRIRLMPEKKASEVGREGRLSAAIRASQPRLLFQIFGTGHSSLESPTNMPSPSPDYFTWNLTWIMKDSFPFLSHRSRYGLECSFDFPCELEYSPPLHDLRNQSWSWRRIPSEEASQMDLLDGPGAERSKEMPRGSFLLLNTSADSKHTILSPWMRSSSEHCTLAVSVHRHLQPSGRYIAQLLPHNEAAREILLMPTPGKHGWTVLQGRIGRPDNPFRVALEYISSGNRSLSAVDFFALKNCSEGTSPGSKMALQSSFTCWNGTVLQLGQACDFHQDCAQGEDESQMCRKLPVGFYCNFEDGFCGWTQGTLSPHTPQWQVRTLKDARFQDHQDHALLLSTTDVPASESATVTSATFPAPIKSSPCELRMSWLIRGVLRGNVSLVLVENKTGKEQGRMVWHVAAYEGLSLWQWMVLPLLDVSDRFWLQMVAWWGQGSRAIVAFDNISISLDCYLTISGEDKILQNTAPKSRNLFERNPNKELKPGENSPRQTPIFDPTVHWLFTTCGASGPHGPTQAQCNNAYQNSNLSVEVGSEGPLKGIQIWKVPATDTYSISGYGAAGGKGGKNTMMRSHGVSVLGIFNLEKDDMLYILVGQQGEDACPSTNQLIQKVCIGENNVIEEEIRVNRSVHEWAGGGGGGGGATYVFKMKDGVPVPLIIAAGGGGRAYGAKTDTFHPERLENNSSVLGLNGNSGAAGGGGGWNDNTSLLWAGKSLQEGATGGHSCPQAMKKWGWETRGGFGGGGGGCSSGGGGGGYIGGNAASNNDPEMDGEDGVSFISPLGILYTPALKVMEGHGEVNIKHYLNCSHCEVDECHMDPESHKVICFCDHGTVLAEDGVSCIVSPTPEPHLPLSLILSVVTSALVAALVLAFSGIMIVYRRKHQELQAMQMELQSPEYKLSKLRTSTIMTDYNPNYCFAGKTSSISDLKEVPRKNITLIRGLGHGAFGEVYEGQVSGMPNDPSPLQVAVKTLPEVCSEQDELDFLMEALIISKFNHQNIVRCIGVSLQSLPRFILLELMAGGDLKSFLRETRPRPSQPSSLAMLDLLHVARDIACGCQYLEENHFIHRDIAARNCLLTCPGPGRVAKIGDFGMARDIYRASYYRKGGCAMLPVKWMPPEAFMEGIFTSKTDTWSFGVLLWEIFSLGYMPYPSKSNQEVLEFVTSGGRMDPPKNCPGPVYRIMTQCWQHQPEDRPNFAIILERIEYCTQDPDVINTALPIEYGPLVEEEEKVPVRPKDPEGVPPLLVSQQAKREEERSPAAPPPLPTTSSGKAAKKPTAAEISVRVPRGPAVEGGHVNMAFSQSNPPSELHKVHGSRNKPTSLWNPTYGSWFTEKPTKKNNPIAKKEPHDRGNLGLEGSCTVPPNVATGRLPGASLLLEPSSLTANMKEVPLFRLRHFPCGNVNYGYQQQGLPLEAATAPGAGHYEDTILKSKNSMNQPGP
Chain of MAP4K1 (HPK1) (Q92918 whole entry): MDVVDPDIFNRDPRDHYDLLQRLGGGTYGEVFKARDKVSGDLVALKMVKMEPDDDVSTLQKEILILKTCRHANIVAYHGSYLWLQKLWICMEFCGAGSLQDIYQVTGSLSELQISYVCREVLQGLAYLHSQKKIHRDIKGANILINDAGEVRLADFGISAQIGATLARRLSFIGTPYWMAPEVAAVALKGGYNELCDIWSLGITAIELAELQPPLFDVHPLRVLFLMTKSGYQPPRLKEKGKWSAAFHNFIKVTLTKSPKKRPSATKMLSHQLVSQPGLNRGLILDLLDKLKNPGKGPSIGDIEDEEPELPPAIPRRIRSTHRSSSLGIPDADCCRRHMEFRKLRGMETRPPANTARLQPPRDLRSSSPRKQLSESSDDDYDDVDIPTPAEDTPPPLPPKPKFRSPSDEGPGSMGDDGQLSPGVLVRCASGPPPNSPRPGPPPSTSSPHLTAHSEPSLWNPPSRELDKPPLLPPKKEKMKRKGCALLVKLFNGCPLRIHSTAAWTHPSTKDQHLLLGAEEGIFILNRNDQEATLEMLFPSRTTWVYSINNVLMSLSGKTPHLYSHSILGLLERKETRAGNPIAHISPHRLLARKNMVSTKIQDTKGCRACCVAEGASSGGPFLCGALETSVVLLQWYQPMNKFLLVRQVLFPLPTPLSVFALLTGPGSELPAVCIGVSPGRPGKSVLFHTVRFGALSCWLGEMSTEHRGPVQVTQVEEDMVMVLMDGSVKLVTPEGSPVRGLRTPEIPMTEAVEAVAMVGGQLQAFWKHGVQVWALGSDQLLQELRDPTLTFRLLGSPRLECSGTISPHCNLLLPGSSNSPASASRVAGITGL

IC50 (ALK) [nM]	IC50 (EGFR (C797S)) [nM]	GI50 [1] [nM]	Compound	other results
1 to 50	1 to 50		CN1CCN2c3ccc(Nc4ncc(Cl)c(Nc5ccccc5P(C)(C)=O)n4)cc3OCC2C1 (racemic) [Compound 1]	
1 to 50	1 to 50	< 20	CN1CCN2c3ccc(Nc4ncc(Cl)c(Nc5ccccc5P(C)(C)=O)n4)cc3OC[C@H]2C1 [Compound 1R]	Cmax [2]: 23.1 ng/mL; Tmax [2]: 1.08 h; half-life [2]: 12.7 h; AUC(0-t) ([2]; read-out: AUC0-24 h): 102 ng·h/mL
1 to 50	1 to 50	< 20	CN1CCN2c3ccc(Nc4ncc(Cl)c(Nc5ccccc5P(C)(C)=O)n4)cc3OC[C@@H]2C1 [Compound 1S]	
1 to 50	50 to 250	20 to 100	CP(C)(=O)c1ccccc1Nc1nc(Nc2ccc3c(c2)OC[C@H]2CN(S(=O)(=O)C4CC4)CCN32)ncc1Cl [Compound 2R]	
1 to 50	1 to 50	20 to 100	CP(C)(=O)c1ccccc1Nc1nc(Nc2ccc3c(c2)OC[C@H]2CN(C4CCOCC4)CCN32)ncc1Cl [Compound 3R]	
1 to 50	1 to 50	20 to 100	CP(C)(=O)c1ccccc1Nc1nc(Nc2ccc3c(c2)OC[C@H]2CNCCN32)ncc1Cl [Compound 4R]	
1 to 50	1 to 50	20 to 100	CP(C)(=O)c1ccccc1Nc1nc(Nc2ccc3c(c2)OC[C@@H]2CNCCN32)ncc1Cl [Compound 4S]	
1 to 50	50 to 250	100 to 200	CC(=O)N1CCN2c3ccc(Nc4ncc(Cl)c(Nc5ccccc5P(C)(C)=O)n4)cc3OC[C@H]2C1 [Compound 5R]	
1 to 50	50 to 250	20 to 100	C=CC(=O)N1CCN2c3ccc(Nc4ncc(Cl)c(Nc5ccccc5P(C)(C)=O)n4)cc3OC[C@H]2C1 [Compound 6R]	
1 to 50	1 to 50	20 to 100	C=CC(=O)N1CCN2c3ccc(Nc4ncc(Cl)c(Nc5ccccc5P(C)(C)=O)n4)cc3OC[C@@H]2C1 [Compound 6S]	
1 to 50	50 to 250		CP(C)(=O)c1ccccc1Nc1nc(Nc2ccc3c(c2)OC[C@H]2CN(CCO)CCN32)ncc1Cl [Compound 7R]	
1 to 50	1 to 50	20 to 100	CCN1CCN2c3ccc(Nc4ncc(Cl)c(Nc5ccccc5P(C)(C)=O)n4)cc3OC[C@H]2C1 [Compound 8R]	
1 to 50	250 to 1000	20 to 100	CP(C)(=O)c1ccccc1Nc1nc(Nc2ccc3c(c2)OC[C@H]2CN(CC#N)CCN32)ncc1Cl [Compound 9R]	
1 to 50	1 to 50	20 to 100	COCCN1CCN2c3ccc(Nc4ncc(Cl)c(Nc5ccccc5P(C)(C)=O)n4)cc3OC[C@H]2C1 [Compound 10R]	
1 to 50	1 to 50	< 20	CN1CCC(N2CCN3c4ccc(Nc5ncc(Cl)c(Nc6ccccc6P(C)(C)=O)n5)cc4OC[C@H]3C2)CC1 [Compound 11R]	
50 to 250	50 to 250	20 to 100	CP(C)(=O)c1ccccc1Nc1nc(Nc2ccc3c(c2)OC[C@H]2COCCN32)ncc1Cl [Compound 12R]	IC50 (MAP4K1 (HPK1)): ≤ 1 nM
1 to 50	50 to 250		CP(C)(=O)c1ccccc1Nc1nc(Nc2ccc3c(c2)OC[C@@H]2COCCN32)ncc1Cl [Compound 12S]	
50 to 250	50 to 250	20 to 100	CP(C)(=O)c1ccccc1Nc1nc(Nc2ccc3c(c2)OC[C@H]2CN(CC(F)(F)F)CCN32)ncc1Cl [Compound 13R]	
50 to 250	50 to 250		CP(C)(=O)c1ccccc1Nc1nc(Nc2ccc3c(c2)OC[C@H]2CN(c4cccnc4)CCN32)ncc1Cl [Compound 15R]	IC50 (MAP4K1 (HPK1)): 1 to 10 nM
		< 20	C#CC(=O)N1CCN2c3ccc(Nc4ncc(Cl)c(Nc5ccccc5P(C)(C)=O)n4)cc3OC[C@H]2C1 [Compound 17R]	
		< 20	C=CS(=O)(=O)N1CCN2c3ccc(Nc4ncc(Cl)c(Nc5ccccc5P(C)(C)=O)n4)cc3OC[C@H]2C1 [Compound 19R]	IC50 (MAP4K1 (HPK1)): ≤ 1 nM
		20 to 100	COC/C=C/C(=O)N1CCN2c3ccc(Nc4ncc(Cl)c(Nc5ccccc5P(C)(C)=O)n4)cc3OC[C@H]2C1 [Compound 20R]	
		20 to 100	Cc1cc(Nc2ncc(Cl)c(Nc3ccccc3P(C)(C)=O)n2)cc2c1N1CCNC[C@@H]1CO2 [Compound 23R]	
		20 to 100	Cc1cc(Nc2ncc(Cl)c(Nc3ccccc3P(C)(C)=O)n2)cc2c1OC[C@@H]1CNCCN21 [Compound 24S]	
		20 to 100	COCCCC(=O)N1CCN2c3ccc(Nc4ncc(Cl)c(Nc5ccccc5P(C)(C)=O)n4)cc3OC[C@H]2C1 [Compound 28R]	
